Assay results: patent US6030960A, “Method of treating hepatitis virus infections” (priority 1998, dated 2000)
“And” between values parts separate entries of the source, which are not always exact repeats. Equal values may be shown once.

Experiments:
Format in all cases: cell-based
[1] = Cytotoxicity in HBV persistently infected human HEP G2 cells, neutral red dye uptake (Table 5); settings: human, hep-g2 cells, Trial 2, read-out: % of Control Neutral Red Dye Uptake
Text: (§1) Initially, evaluations of the alkyl lipids were done to determine whether the compounds were cytotoxic to the cells at concentrations having anti-HBV activity. The assay methodology is szt forth in Korba and Germ, Antiviral Res., 19, 55-70 (1992), incorporated by reference herein. Briefly, these cell cytotoxicity evaluations were done in 96-well plates seeded with HEP-G2 cell monolayers. The hepatoblastoma cell line HEP-G2 transfected with a plasmid carrying the gene that confers resistance to […] and four 5'-3' tandem copies of the Hepatitis B virus genome was obtained from Dr. George Acs. Proc. Natl. Acad. Sci. USA, 84, 1005-1009 (1987). Serial concentrations of compound were added to the RPMI-1640 growth medium and the growth medium was added to the 96-well plates containing the cell monolayers. The cells were incubated for a total of nine days at 37° C. The compound-containing medium was periodically replaced. Each compound was tested at four serial concentrations in triplicate. After nine days of treatment and incubation, 0.01% neutral red dye (Sigma, Inc.) was added to the overlay medium. Cell cytotoxicity was quantitated by measuring the average A510. Values in Table 1 represent the percentage of average A510 values (±standard deviation) relative to nine non-treated control wells.
An analysis was periormed to determine the cytotoxicity of the following compounds in human HEP-G2 cells persistently infected with HBV: CP-51, CP-49, CP-9, CP-126, lyso PAF and CP-7. 2'-3'-Dideoxycytidine (ddC) was used as a control in this cytotoxicity analysis. The toxicity analyses were performed in 96-well flat bottomed tissue culture plates following the same procedure set forth in Example 6 above. Each compound was tested at four concentrations, each in triplicate cultures. Uptake of neutral red dye was used to determine the relative level of toxicity. The absorbance of internalized dye at […] (A510) was used for the quantitative analysis.
Values are presented as a percentage of the average A510 values (± standard deviations) in ninz separate cultures of untreated cells maintained on the same 96-well plate as the test compounds. The percentage of dye uptake in the nine control cultures was 100±1.

Hepatitis B virus [2] = assay: Effect of alkyl lipids on HBV replication in HBV persistently infected human HEP G2 cells (Table 6); settings: for Intracellular HBV DNA, Mono (episomal 3.2-3.8 Kb HBV genomes) / Intracellular HBV DNA, RI (replication intermediates): nine days
Experimental: Cells were treated with a particular compound for nine days at 37° C. Analysis of intracellular HEIV DNA was done 24 hours following the ninth day of treatment. […] The levels of integrated HBV DNA in each cellular DNA preparation were used to calculate the levels of episomal 3.2-3.8 Kb HBV genomes (Mono) and HBV DNA replication intermediates (RI). A zero value indicates an undetectable level of HBV virion DNA. The sensitivity cut-off was 0.1 pg DNA/ml of culture medium.

Hepatitis B virus [3] = assay: Effect on synthesis of antigen markers in persistently infected human HEP G2 cell cultures (Table 7); settings: nine days; for activity at 10 µM: Hepatitis B virus, HepG2, 216 h
Experimental: Cells were treated with compound for nine days at 37° C. The overlay medium was harvested to measure levels of HBsAg, HBeAg and virion DNA. HBsAg and HBeAg were assayed by EIA (Abbott Laboratories). Virion DNA levels were measured as described in section B above.

[4] = Cytotoxicity of alkyl lipids, neutral red dye uptake (Table 1); settings: human, hep-g2 cells
Text: as §1

Hepatitis B virus [5] = assay: Anti-hepatitis B virus activity in HEP-G2 cells persistently infected with HBV (Table 2); settings: 10 μM; for activity against HBV-induced virion DNA and HBeAg syntheses: in words; for activity at 10 µM: Hepatitis B virus, HepG2, 216 h, 9 days treatment
Experimental: HEP-G2 cells persistently infected with HBV were treated daily with fresh D-MEM containing 20% FBS and 10 μM compound. After 9 days incubation and treatment, the overlay medium was harvested to assay the quantity of Hepatitis B virus s antigen (HBsAg) and HBeAg by EIA (Abbott Laboratories). The overlay medium was diluted to levels of antigen in the linear range of the assay. Standard curves using dilutions of positive HBsAg and HBeAg controls were included in each assay. Virion DNA was assayed using the method set forth in Korba and Gerin, Antiviral Res., 19, 5,5-70 (1992), incorporated by reference herein. HBV DNA was extracted from the overlay medium containing virus particles and analyzed by a slot-blot hybridization technique using ^32 P-labelled 3.2 Kb Eco R1 HBV DNA fragment by comparisons to HBV standards present on nitrocellulose filters using an AMBIS beta scanner. EC90 values (90% effective concentration, i.e., drug concentration which induces a 90% decrease in the levels of HBV DNA replication intermediates in treated versus control cells) were calculated by linear regression analysis. The relative levels of HBsAg, HBeAg and virion DNA were calulated as a percentage of the average levels obtained from the untreated controls.

[6] = read-out: Relative Level of HBeAg
[7] = read-out: Relative Level of HBsAg
[8] = read-out: Relative Level of Virion DNA

CCCCCCCCCCCCCCCCCCOCC(O)COP(=O)([O-])OCC[N+](C)(C)C (racemic) [lyso PAF, rac-3-octadecyloxy-2-hydroxy-1-propyl phosphocholine]
viability at 216 h, 3 µM ([1]; 3 μM): 98 ± 2% | viability at 216 h, 10 µM ([1]; 10 μM): 99 ± 1% | viability at 216 h, 30 µM ([1]; 30 μM): 98 ± 2% | viability at 216 h, 100 µM ([1]; 100 μM): 40 ± 6% | HBV Virion DNA (Hepatitis B virus [2]; 0.1 μM, Day 0): 62 pg/ml Culture Medium and 60 pg/ml Culture Medium and 81 pg/ml Culture Medium and 57 pg/ml Culture Medium | HBV Virion DNA (Hepatitis B virus [2]; 0.1 μM, Day 3): 77 pg/ml Culture Medium and 81 pg/ml Culture Medium and 70 pg/ml Culture Medium and 69 pg/ml Culture Medium | HBV Virion DNA (Hepatitis B virus [2]; 0.1 μM, Day 6): 80 pg/ml Culture Medium and 79 pg/ml Culture Medium and 64 pg/ml Culture Medium and 88 pg/ml Culture Medium | HBV Virion DNA (Hepatitis B virus [2]; 0.1 μM, Day 9): 84 pg/ml Culture Medium and 96 pg/ml Culture Medium and 67 pg/ml Culture Medium and 92 pg/ml Culture Medium | Intracellular HBV DNA, Mono (episomal 3.2-3.8 Kb HBV genomes) (Hepatitis B virus [2]; 0.1 μM): 2.5 pg/μg Cell DNA and 2.1 pg/μg Cell DNA and 2.0 pg/μg Cell DNA | Intracellular HBV DNA, RI (replication intermediates) (Hepatitis B virus [2]; 0.1 μM): 84 pg/μg Cell DNA and 96 pg/μg Cell DNA and 67 pg/μg Cell DNA and 71 pg/μg Cell DNA | HBV Virion DNA (Hepatitis B virus [2]; 1 μM, Day 0): 52 pg/ml Culture Medium and 51 pg/ml Culture Medium and 63 pg/ml Culture Medium and 65 pg/ml Culture Medium | HBV Virion DNA (Hepatitis B virus [2]; 1 μM, Day 3): 69 pg/ml Culture Medium and 61 pg/ml Culture Medium and 53 pg/ml Culture Medium | HBV Virion DNA (Hepatitis B virus [2]; 1 μM, Day 6): 72 pg/ml Culture Medium and 79 pg/ml Culture Medium and 81 pg/ml Culture Medium | HBV Virion DNA (Hepatitis B virus [2]; 1 μM, Day 9): 74 pg/ml Culture Medium and 83 pg/ml Culture Medium and 59 pg/ml Culture Medium and 88 pg/ml Culture Medium | Intracellular HBV DNA, Mono (episomal 3.2-3.8 Kb HBV genomes) (Hepatitis B virus [2]; 1 μM): 2.6 pg/μg Cell DNA and 2.9 pg/μg Cell DNA and 2.4 pg/μg Cell DNA | Intracellular HBV DNA, RI (replication intermediates) (Hepatitis B virus [2]; 1 μM): 74 pg/μg Cell DNA and 83 pg/μg Cell DNA and 59 pg/μg Cell DNA and 84 pg/μg Cell DNA | HBV Virion DNA (Hepatitis B virus [2]; 10 μM, Day 0): 52 pg/ml Culture Medium and 62 pg/ml Culture Medium and 60 pg/ml Culture Medium and 68 pg/ml Culture Medium | HBV Virion DNA (Hepatitis B virus [2]; 10 μM, Day 3): 65 pg/ml Culture Medium and 71 pg/ml Culture Medium and 51 pg/ml Culture Medium and 50 pg/ml Culture Medium | HBV Virion DNA (Hepatitis B virus [2]; 10 μM, Day 6): 36 pg/ml Culture Medium and 34 pg/ml Culture Medium and 30 pg/ml Culture Medium and 32 pg/ml Culture Medium | HBV Virion DNA (Hepatitis B virus [2]; 10 μM, Day 9, 0 = undetectable, cut-off 0.1 pg DNA/ml): 14 pg/ml Culture Medium and 18 pg/ml Culture Medium and 11 pg/ml Culture Medium and 13 pg/ml Culture Medium | Intracellular HBV DNA, Mono (episomal 3.2-3.8 Kb HBV genomes) (Hepatitis B virus [2]; 10 μM): 2.0 pg/μg Cell DNA and 2.4 pg/μg Cell DNA and 2.6 pg/μg Cell DNA and 2.8 pg/μg Cell DNA | Intracellular HBV DNA, RI (replication intermediates) (Hepatitis B virus [2]; 10 μM): 15 pg/μg Cell DNA and 22 pg/μg Cell DNA and 18 pg/μg Cell DNA and 21 pg/μg Cell DNA | Relative Level of HBeAg (Hepatitis B virus [3]; 10 μM, 12960 min): 50 % of Untreated Control | Relative Level of HBsAg (Hepatitis B virus [3]; 10 μM, 12960 min): 80 % of Untreated Control | Relative Level of Virion DNA (Hepatitis B virus [3]; 10 μM, 12960 min): 15 % of Untreated Control | activity at 10 µM (Hepatitis B virus [3]; read-out: Relative Level of HBeAg, 10 μM): 45% | activity at 10 µM (Hepatitis B virus [3]; read-out: Relative Level of HBsAg, 10 μM): 78% | activity at 10 µM (Hepatitis B virus [3]; read-out: Relative Level of Virion DNA, 10 μM): 13%

CCCCCCCCCCCCCCCC(=O)NCC(COP(=O)([O-])OCC[N+](C)(C)C)OC (centres unmarked) [CP-48]
cytotoxicity at 216 h, 30 µM [4]: 39% | viability at 216 h, 3 µM [4]: 102 ± 1% | viability at 216 h, 10 µM [4]: 97 ± 1% | viability at 216 h, 30 µM [4]: 61 ± 2% | viability at 216 h, 100 µM [4]: 24 ± 1% | activity against HBV-induced virion DNA and HBeAg syntheses (Hepatitis B virus [5]): no significant activity | activity at 10 µM (Hepatitis B virus [5]; [6]): 88% | activity at 10 µM (Hepatitis B virus [5]; [7]): 73% | activity at 10 µM (Hepatitis B virus [5]; [8]): 96%

CCCCCCCCCCCCCCCCCC(=O)NCC(COP(=O)([O-])OCC[N+](C)(C)C)OC (centres unmarked) [CP-50]
cytotoxicity at 216 h, 30 µM [4]: 0% | cytotoxicity at 216 h, 100 µM [4]: 5% | viability at 216 h, 3 µM [4]: 97 ± 2% | viability at 216 h, 10 µM [4]: 99 ± 2% | viability at 216 h, 30 µM [4]: 100 ± 3% | viability at 216 h, 100 µM [4]: 95 ± 2% | activity against HBV-induced virion DNA and HBeAg syntheses (Hepatitis B virus [5]): no significant activity | activity at 10 µM (Hepatitis B virus [5]; [6]): 93% | activity at 10 µM (Hepatitis B virus [5]; [7]): 104% | activity at 10 µM (Hepatitis B virus [5]; [8]): 88%
